The text below walks through data of PMC4724192 (Biochemistry, 2014).

Experiment [1] concerns the target T1, 2P-ERK2 (Rattus norvegicus, UniProt P63086). The experiment can be described thus: Morrison titration experiment for tight-binding inhibitors. The format is biochemical.
The test system of the next experiment is ERK2. To be noted: read-out: IC50 Published previously; cited from earlier work.
Experiment [2] concerns the target T1, 2P-ERK2. The format is biochemical.
The target of experiment [3] is T1, 2P-ERK2. Description: Preincubation / 300-fold dilution experiment, recovery of activity. Conditions: for kinetic behaviour of binding and release: linear product accumulation, rapid recovery on dilution.
The target in experiment [4] is ERK. To be noted: read-out: Kd in vitro; cited from earlier work.
A further experiment addresses 0P-ERK2 (Rattus norvegicus, UniProt P63086). Description: biochemical.
Experiment [5] deals with ERK. To be noted: read-out: IC50 in vivo (biological activity); cited from earlier work.
The target in experiment [6] is T1, 2P-ERK2. To be noted: for mode of inhibition (Lineweaver-Burk replots): 2P-ERK2, varying ATP; for Ki: 2P-ERK2, rapid on/off inhibitors, varying ATP, 20 μM sub-D.
The target of experiment [7] is T1, 2P-ERK2. To be noted: read-out: IC50 This study; 2P-ERK2, 20 μM sub-D, 100 μM ATP, 25 °C; eq 1.

Several values for one entry are separate records, joined by “and”; a condition that tells them apart may be missing. Identical values can stand only once. Like-named read-outs stand apart in the source and are kept apart here.

T1 sequence (P63086 whole entry): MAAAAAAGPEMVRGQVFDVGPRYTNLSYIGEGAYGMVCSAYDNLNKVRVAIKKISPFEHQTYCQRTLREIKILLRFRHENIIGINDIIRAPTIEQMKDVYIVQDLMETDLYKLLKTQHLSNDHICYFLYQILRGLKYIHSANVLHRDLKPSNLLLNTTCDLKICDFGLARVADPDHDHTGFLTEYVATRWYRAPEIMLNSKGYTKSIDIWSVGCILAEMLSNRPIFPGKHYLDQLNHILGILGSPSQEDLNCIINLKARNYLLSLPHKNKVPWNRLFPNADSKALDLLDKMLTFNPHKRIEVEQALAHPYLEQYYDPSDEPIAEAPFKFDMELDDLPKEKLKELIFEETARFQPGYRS
Sequence of 0P-ERK2 (P63086 whole entry): as above

For the compound `O=C(Nc1ccc2[nH]nc(-c3ccncc3)c2c1)[C@@H]1CCN(CC(=O)N2CCN(c3ccc(-c4ncccn4)cc3)CC2)C1` [SCH772984], the results for the Ki at 2P-ERK2 [1] and on 0P-ERK2 were 0.12 ± 0.1 nM and 0.12 ± 0.04 nM, respectively. Also, the half-maximal inhibitory concentration (IC50) (as a rule, the point on the concentration scale where inhibition reaches its midpoint) was 0.24 nM in the experiment with ERK2; < 100 nM and 60 nM with ERK [5]. In addition, the “kinetic behaviour of onset of inhibition” value at 2P-ERK2 [2] (2P-ERK2, curved product accumulation) is listed as “slow-onset inhibition”. Further, the kon (commonly a measure of how fast the partners come together) at 2P-ERK2 [2] (read-out: kon (apparent rate constant for association)) is 2.8e+06 ± 340000 M⁻¹ s⁻¹. In addition, the Kd – broadly, the constant that tells how readily two partners part at equilibrium – at 2P-ERK2 [3] was 0.11 ± 0.021 nM; on ERK [4], 0.19 nM. At 2P-ERK2 [3] (2P-ERK2, predicted from koff), the “residence time (inverse of koff)” value is 0.9 h. Moreover, at 2P-ERK2 [3] (read-out: koff (dissociation rate constant)), the koff (as a rule, the rate constant with which the complex falls apart) was 0.000306 s⁻¹.
Consider `Nc1nccc(-c2c(-c3ccc(F)cc3)ncn2C2CCNCC2)n1` [SB220025], for which, at 2P-ERK2 [3] (2P-ERK2), the “kinetic behaviour of binding and release” value is “rapid on/off inhibitors”.
In the case of `Cn1cnc2c(NCc3ccccc3)nc(NCCO)nc21` [Olomoucin], on 2P-ERK2 [3] (2P-ERK2), the “kinetic behaviour of binding and release” value is recorded as “rapid on/off inhibitors”. Besides, at 2P-ERK2 [6], the “mode of inhibition (Lineweaver-Burk replots)” value is given as “competitive versus ATP” and the affinity corresponds to a Ki of 10800 nM. The IC50 on 2P-ERK2 [7] was 33000 nM.
As to `Nc1[nH]nc2nnc(-c3c(-c4ccccc4)nn4ccccc34)cc12` [FR180204], the IC50 in the experiment on ERK2 is 140 nM. In addition, the “kon (rate constant for association), lower bound” value on 2P-ERK2 [3] (2P-ERK2, inferred from dissociation rate constant >0.05 s^−1) was >0.8 ^d μM^−1 s^−1. Further, the “kinetic behaviour of binding and release” value on 2P-ERK2 [3] (2P-ERK2) is “rapid on/off inhibitors”. On 2P-ERK2 [6], the “mode of inhibition (Lineweaver-Burk replots)” value is reported as “competitive versus ATP” and the Ki (in general, a measure of affinity in units of concentration, obtained from inhibition or displacement) turned out to be 63 ± 17 nM. For the same compound, the IC50 at 2P-ERK2 [7] turned out to be 330 ± 64 nM.
